From paper PMC10485906, “Development of a Dihydroquinoline–Pyrazoline GluN2C/2D-Selective Negative Allosteric Modulator of the N-Methyl-D-aspartate Receptor” (ACS Chemical Neuroscience, 2023)
Like-named read-outs stand apart in the source and are kept apart here.

Columns and labels:
GluN1/GluN2A = target: T1, GluN1/GluN2A (Rattus norvegicus, UniProt Q00959); set-up: method as in PMID 23909910; conditions: reproduced for comparison; cited from earlier work
T1 construct: expressed in transfected cells; host or cells: Xenopus laevis oocytes (cRNA injection)

GluN1/GluN2C [1] = target: GluN1/GluN2C (Rattus norvegicus, UniProt Q00961); assay: Whole-cell voltage-clamp recordings, HEK cells, GluN1/GluN2C (agonist dependence); format: cell-based
Method: (§1) We also evaluated the mechanism of inhibition of GluN1/GluN2C expressed in HEK cells preincubated with glycine for inhibitor 2i (DQP-997-74) by comparing inhibitor potency during the peak and steady-state current responses to glutamate application. […] The deactivation of GluN1/GluN2C receptors (0.53 ± 0.07 s) was slowed by the presence of compound 2i when applied at concentrations of 1 μM (1.3 ± 0.14 s; p = 0.001) and 3 μM (2.3 ± 0.40 s; p < 0.0001) but not at 0.1 μM (0.61 ± 0.07 s; p = 0.965) and 0.3 μM (0.88 ± 0.13 s; p = 0.115; Figure S2).
(§2) HEK293 cells (HEK, ATCC CRL-1573) were plated on glass coverslips pretreated with 0.1 mg/mL poly-D-lysine and cultured in Dulbecco’s modified Eagle medium (DMEM) plus Glutamax (GIBCO 10569-10) supplemented with 10% fetal bovine serum, 10 U/mL of penicillin, and 10 μg/mL of streptomycin at 37 °C and 5% CO2. The cells were transiently transfected with cDNA encoding rat GluN1, GluN2D, and eGFP at a ratio of 1:1:5 by using the calcium phosphate precipitation method.[48] After 24–48 h following the transfection, the cells were perfused with external recording solution that contained (in mM) 3 KCl, 150 NaCl, 0.01 EDTA, 1.0 CaCl2, 10 HEPES, and 22 D-mannitol (the pH was adjusted to 7.4 with NaOH). The patch electrodes (resistance 3–5 MΩ) were prepared from thin-walled glass micropipettes (TW150F-4, World Precision Instruments, Sarasota, FL) by a dual-stage glass micropipette puller (PC-10, Narishige, Tokyo, Japan) and filled with internal solution containing (in mM) 110 D-gluconate, 110 CsOH, 30 CsCl, 5 HEPES, 4 NaCl, 0.5 CaCl2, 2 MgCl2, 5 BAPTA, 2 NaATP, and 0.3 NaGTP. The pH was adjusted to 7.4 with CsOH; osmolality was adjusted to about 300–305 mOsmol/kg. The whole-cell current responses were evoked by application of maximally effectively concentrations of agonists (100 μM glutamate and 30 μM glycine) at a holding potential of −60 mV and recorded using an Axopatch 200B patch-clamp amplifier (Molecular Devices, Union City, CA). A two-barreled theta-glass micropipette was used for rapid solution exchange controlled by a piezoelectric translator (Burleigh Instruments, Newton, NJ). For some experiments, 500 μM NMDA and 250 μM glycine were briefly applied by pressure application from a patch pipette (tip 3–5 MΩ). The current responses were low pass filtered at 2 kHz 8-pole Bessel filter (−3 dB; Frequency Devices) and digitized at 20 kHz using Digidata 1440A acquisition system (Molecular Devices) controlled by Clampex 10.3 (Molecular Devices). All patch experiments were performed at room temperature (23 °C).
(§3) Confidence intervals were determined for the log(IC50). The time course of relaxation during inhibitor application or deactivation following rapid removal of NMDA or glutamate was fitted by the equation [drawing 5] 2 […]
(§4) μM), which is consistent with increased inhibitor potency late in the stimulus train after agonist is bound. […]
(§5) inhibition of recombinant GluN1/GluN2C receptors expressed in HEK cells. GluN1/GluN2C current responses were recorded to glutamate with pre-applied glycine and compound 2i or control (pre-applied glycine and vehicle, 0.1% DMSO; see Figure S2A). The concentration-response curves show peak and steady-state responses normalized to control (Figure S2B). A linear relationship exists between 1/τinhibition and compound 2i concentration from which kON and kOFF can be calculated (see Results, Figure S2C). The deactivation time course following rapid glutamate removal was expanded to show the slowing of receptor deactivation (τdeactivation) by compound 2i (Figure S2D). τdeactivation for individual cells as well as the mean ± SEM are plotted and data were compared by mixed effects model (F (4, 17) = 22.60, p<0.0001; asterisks indicate statistically significant differences, see Results for p -values).
(§6) 2013) and the whole cell current recordings from HEK cells of GluN1/GluN2D responses to glutamate with pre-applied (S)-2a or vehicle (0.1% DMSO). The IC50 for (S)-2a 33 (Figure S3) was 4-fold higher […]

GluN1/GluN2C [2] = target: GluN1/GluN2C (Rattus norvegicus, UniProt P35439+Q00961); assay: as above; format: cell-based; conditions: for IC50: inhibitor and glycine preapplied
Method: as §1, §2, §3, §4, §5, §6

[3] = HEK293, linear regression of 1/τinhibition vs concentration

Chain of GluN1/GluN2C (Rattus norvegicus, UniProt Q00961) (Q00961 20-1237, other chains not shown): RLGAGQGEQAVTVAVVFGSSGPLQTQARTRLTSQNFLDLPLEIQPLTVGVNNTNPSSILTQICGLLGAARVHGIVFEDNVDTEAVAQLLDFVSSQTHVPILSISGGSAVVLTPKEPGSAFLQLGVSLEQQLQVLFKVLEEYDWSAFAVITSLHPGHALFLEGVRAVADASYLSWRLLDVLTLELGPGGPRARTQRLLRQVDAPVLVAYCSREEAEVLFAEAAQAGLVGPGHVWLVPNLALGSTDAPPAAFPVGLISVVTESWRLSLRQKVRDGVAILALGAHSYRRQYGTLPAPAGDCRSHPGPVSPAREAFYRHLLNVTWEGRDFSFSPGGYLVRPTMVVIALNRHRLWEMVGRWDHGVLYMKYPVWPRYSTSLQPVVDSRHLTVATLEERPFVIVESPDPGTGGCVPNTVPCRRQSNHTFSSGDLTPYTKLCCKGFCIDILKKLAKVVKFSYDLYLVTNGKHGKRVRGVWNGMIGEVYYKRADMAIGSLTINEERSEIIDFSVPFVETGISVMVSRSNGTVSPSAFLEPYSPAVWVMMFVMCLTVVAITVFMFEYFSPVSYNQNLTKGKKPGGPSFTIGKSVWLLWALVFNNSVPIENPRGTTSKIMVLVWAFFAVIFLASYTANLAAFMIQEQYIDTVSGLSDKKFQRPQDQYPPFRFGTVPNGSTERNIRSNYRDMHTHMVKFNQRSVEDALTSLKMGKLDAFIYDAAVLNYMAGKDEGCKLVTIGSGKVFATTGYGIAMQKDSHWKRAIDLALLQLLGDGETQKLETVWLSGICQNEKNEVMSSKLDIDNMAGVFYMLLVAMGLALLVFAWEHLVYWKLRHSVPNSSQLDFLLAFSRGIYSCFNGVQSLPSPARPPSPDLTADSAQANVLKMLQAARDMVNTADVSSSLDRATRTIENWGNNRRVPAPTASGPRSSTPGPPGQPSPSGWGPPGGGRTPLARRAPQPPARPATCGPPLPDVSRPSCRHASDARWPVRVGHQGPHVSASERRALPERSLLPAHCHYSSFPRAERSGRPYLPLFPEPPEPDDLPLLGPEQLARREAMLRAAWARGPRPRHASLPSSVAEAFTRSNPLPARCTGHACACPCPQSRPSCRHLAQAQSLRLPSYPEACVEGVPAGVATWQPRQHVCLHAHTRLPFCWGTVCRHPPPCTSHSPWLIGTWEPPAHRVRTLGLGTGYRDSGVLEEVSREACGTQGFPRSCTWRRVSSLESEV
Chain of GluN1/GluN2C (Rattus norvegicus, UniProt P35439+Q00961) (Q00961 20-1237, other chains not shown): as above
T1 sequence (Q00959 23-1464, other chains not shown): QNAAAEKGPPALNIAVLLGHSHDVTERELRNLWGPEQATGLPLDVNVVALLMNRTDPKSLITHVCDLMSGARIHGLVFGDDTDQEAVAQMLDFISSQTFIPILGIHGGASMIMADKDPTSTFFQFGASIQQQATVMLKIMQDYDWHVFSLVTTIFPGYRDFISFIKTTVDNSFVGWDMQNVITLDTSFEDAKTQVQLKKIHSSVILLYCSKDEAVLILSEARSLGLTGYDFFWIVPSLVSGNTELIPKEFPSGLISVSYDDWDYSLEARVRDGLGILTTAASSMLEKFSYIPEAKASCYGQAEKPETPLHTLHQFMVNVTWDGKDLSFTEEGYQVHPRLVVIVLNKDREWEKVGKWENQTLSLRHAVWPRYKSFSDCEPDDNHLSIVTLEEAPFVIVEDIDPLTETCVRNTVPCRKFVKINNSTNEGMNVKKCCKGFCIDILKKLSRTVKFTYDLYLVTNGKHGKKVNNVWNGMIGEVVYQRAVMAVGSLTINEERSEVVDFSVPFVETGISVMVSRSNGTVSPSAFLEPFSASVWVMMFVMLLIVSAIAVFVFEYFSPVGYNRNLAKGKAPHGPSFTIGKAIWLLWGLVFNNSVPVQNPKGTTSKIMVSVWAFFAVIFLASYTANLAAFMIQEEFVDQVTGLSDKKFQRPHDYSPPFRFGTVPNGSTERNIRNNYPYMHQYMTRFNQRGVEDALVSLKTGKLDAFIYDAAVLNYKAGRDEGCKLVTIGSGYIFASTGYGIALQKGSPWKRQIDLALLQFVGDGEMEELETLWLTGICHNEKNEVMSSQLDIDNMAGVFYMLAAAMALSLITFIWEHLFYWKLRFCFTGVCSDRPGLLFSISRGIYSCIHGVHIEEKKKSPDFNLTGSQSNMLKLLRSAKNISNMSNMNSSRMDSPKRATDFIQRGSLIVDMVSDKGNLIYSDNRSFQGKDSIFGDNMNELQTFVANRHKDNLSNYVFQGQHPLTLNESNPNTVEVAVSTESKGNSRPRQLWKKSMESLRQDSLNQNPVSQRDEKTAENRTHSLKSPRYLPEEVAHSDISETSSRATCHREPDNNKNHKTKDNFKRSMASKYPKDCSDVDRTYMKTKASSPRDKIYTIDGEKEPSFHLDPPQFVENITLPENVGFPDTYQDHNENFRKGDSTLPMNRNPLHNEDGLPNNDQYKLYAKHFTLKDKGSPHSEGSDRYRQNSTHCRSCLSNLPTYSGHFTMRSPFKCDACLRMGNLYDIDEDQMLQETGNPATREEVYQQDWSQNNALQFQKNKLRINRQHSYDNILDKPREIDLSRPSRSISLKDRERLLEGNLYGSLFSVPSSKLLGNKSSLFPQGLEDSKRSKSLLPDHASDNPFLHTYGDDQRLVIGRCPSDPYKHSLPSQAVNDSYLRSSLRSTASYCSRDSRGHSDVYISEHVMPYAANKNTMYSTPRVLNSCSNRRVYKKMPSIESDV

| deactivation of GluN1/GluN2C receptors (GluN1/GluN2C [1]; 0.1 μM compound) [s] | deactivation of GluN1/GluN2C receptors (GluN1/GluN2C [1]; 0.3 μM compound) [s] | deactivation of GluN1/GluN2C receptors (GluN1/GluN2C [1]; 1 μM compound) [s] | deactivation of GluN1/GluN2C receptors (GluN1/GluN2C [1]; 3 μM compound) [s] | koff (GluN1/GluN2C [2]; [3]) [s⁻¹] | kon (GluN1/GluN2C [2]; [3]) [M⁻¹ s⁻¹] | Kd (GluN1/GluN2C [2]; from kON and kOFF) [µM] | IC50 (GluN1/GluN2C [2]; read-out: IC50 peak current responses) [µM] | IC50 (GluN1/GluN2C [2]; read-out: IC50 steady-state responses) [µM] | SMILES | I 30 μM / I control GluN2A (GluN1/GluN2A) |
| --- | --- | --- | --- | --- | --- | --- | --- | --- | --- | --- |
|  |  |  |  |  |  |  |  |  | O=C(O)CCC(=O)N1N=C(c2c(-c3ccc(Cl)cc3)c3ccccc3[nH]c2=O)CC1c1ccc(Cl)cc1 (stereo not shown) [2a] | 37 ± 4.6 (2,10) % |
| 0.61 ± 0.07 | 0.88 ± 0.13 | 1.3 ± 0.14 | 2.3 ± 0.40 | 0.27 | 800000 | 0.33 | 5 | 0.25 | O=C(O)CC(F)(F)C(=O)N1N=C(c2c(-c3ccc(Cl)cc3)c3ccccc3[nH]c2=O)CC1c1ccc(Cl)cc1 (stereo not shown) [2i] |  |
